According to patent publication US7678787B2, “Pyrrolobenzodiazepine pyridine carboxamides and derivatives as follicle-stimulating hormone receptor antagonists” (Wyeth, priority 2005, dated 2010):
pIC50: −log10 of the molar value. Where “and” joins values, the source holds several entries; their conditions need not be identical. Identical values can stand only once.

Experiments:
human FSH receptor = biological target: T1, human FSH receptor (Homo sapiens, UniProt P23945); assay: FSH receptor-dependent CRE-luciferase reporter gene assay (CHO FSH-R 6CRE-Luc cells); format: cell-based; details: dose-response format in presence of EC50 of purified human FSH; * n=3, ** n=2 averages
T1 construct: host or cells: CHO-K1 (CHO FSH-R 6CRE-Luc, 1D7 cells)
T1 sequence (P23945 18-695): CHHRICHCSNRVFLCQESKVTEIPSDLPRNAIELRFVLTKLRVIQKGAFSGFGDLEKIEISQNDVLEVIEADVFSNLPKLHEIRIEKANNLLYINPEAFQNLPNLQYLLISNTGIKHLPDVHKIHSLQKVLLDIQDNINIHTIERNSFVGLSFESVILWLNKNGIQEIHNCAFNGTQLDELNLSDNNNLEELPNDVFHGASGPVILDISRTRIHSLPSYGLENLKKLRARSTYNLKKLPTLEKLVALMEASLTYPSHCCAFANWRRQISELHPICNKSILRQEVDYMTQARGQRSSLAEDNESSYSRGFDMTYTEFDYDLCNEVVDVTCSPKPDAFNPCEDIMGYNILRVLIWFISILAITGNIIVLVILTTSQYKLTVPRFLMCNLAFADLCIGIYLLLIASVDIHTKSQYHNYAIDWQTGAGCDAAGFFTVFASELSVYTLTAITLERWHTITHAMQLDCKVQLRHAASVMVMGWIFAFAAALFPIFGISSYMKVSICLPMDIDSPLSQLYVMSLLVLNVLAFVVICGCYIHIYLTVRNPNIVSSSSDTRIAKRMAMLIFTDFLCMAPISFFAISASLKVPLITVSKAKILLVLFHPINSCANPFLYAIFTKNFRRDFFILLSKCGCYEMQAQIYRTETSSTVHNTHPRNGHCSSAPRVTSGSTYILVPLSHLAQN
From the text: FOLLICLE-STIMULATING HORMONE RECEPTOR-DEPENDENT CRE-LUCIFERASE REPORTER GENE ASSAY FOR THE IDENTIFICATION OF FOLLICLE-STIMULATING HORMONE (FSH) ANTAGONISTS
A Chinese hamster ovarian cell line that stably produces the human FSH receptor and a luciferase reporter gene regulated by cAMP response elements was used to identify and determine the relative potencies of human FSH receptor antagonists. See for example, Kelton, C. A., et al. Mol. Cell. Endocrinol. 89:141-151 (1992), Tilly, J. L., et al. Endocrinology 131:799-806(1992), and George, S. E., et al. J. Biomol. Screening 2:235-240 (1997).
Compound Vehicle: Stock compounds were solubilized in an appropriate vehicle, e.g., phosphate buffered saline (PBS) or dimethyl sulfoxide (DMSO), at 30 mM. The compounds subsequently were diluted in DMSO to working dilutions of 1 and 20 or 30 mM for 2-dose testing format and 1 μM-10 mM for dose-response format. The DMSO dilutions were diluted 500-fold in sterile growth medium [D-MEM/F-12 (GIBCO/BRL; Grand Island, N.Y.) containing 15 mM HEPES, 2 mM l-glutamine, pyridoxine hydrochloride, phenol red and 5% FETALCLONE® II (HyClone Laboratories, Inc; Logan, Utah), 0.2% DMSO, 100 units penicillin G/ml, and 100 μg streptomycin sulfate/ml (GIBCO/BRL)]. The concentration of the vehicle in each of the compound dilutions was the same.
Positive Controls: Purified human FSH (>98%) was purchased from Cortex Biochem, Inc. (San Leandro, Calif.) and 3-[(2S*,5R*)-5-{[2-(1H-Indol-3-yl)-ethylcarbamoyl]-methyl}-4-oxo-2-(5-phenylethynyl-thiophen-2-yl)-thiazolidin-3-yl]-benzamide (an FSH-R thiazolidinone antagonist) was prepared by processes described by R. A. Scheuerman et al. in U.S. Pat. No. 6,426,357 (Affymax).
The CHO FSH-R 6CRE-Luc cells (1D7 cells) were obtained from Affymax (Palo Alto, Calif.). These Chinese hamster ovary cells (CHO-K1) were engineered genetically to stably express the recombinant human FSH receptor gene and a luciferase reporter gene under the regulation of 6 copies of a cAMP response element. The cells were plated one day prior to treatment into 96-well white opaque plates at a density of 50,000 cells/100 μl/well in growth medium. On the day of treatment, the growth medium was removed from the wells by aspiration and 50 μl of fresh growth medium was added to each well. The cells were incubated at 37° C. in a humidified incubator with 5% CO2/95% air.
The treated cells were incubated for 4 hours at 37° C. in a humidified incubator with 5% CO2/95% air. At the end of the incubation period, luciferase activity was measured by chemiluminescence using a commercially available kit (LucScreen, Tropix, Inc., Bedford, Mass.) according to the manufacturer's specifications, except that Buffer 1 and Buffer 2 were mixed together in equal proportion prior to the addition of 100 μl of the combined reagents to each well. Chemiluminescence was detected using a luminometer (EG & G Berthold Microlumat LB 96 P, Wallac, Gaithersburg, Md.) with chemiluminescence measured for 1 sec/well. Background luminescence was measured for each well prior to the addition of the LucScreen reagent.
In the 96-well 2-dose format, each compound was tested in duplicate at each dose. […] One plate was used to test a maximum of 22 compounds.
The EC50 of purified human FSH alone was tested in triplicate with each test compound. The doses chosen to test each compound were extrapolated from the initial 2-dose screening process. Along with the test compounds, purified human FSH also was tested in a dose response (0.03, 0.1, 0.3, 1, 3, 10, and 30 ng/ml) for a positive control and quality control. One plate was used for 3 test compounds and the FSH positive control.
Luciferase activity is expressed as relative light units/sec/well. Luciferase activity in antagonist was compared to the appropriate negative and positive controls. For 2-dose testing, results are reported as luciferase activity and are expressed as percent inhibition of the response obtained from the EC50 of FSH.

hFSH-R = biological target: T2, hFSH-R (Homo sapiens, UniProt P23945); assay: cAMP accumulation (RIA) in CHO-3D2 cells (hFSH-R), hFSH-induced; format: cell-based; details: inhibition of cAMP accumulation induced by hFSH at EC20, CHO-3D2 cells
T2 construct: expressed in transfected cells; host or cells: CHO-3D2 cells (CHO-K1 parental line)
T2 sequence (P23945 18-695): T1 sequence (P23945 18-695)
Description: IN VITRO BIO-ASSAY OF AGONISTS AND ANTAGONISTS TO THE FSH RECEPTOR. SELECTIVITY AND DEPENDENCY OF AGONISTS AND ANTAGONISTS TO THE FSH RECEPTOR
Compound Vehicle: Stock compounds were solubilized in 100% DMSO (Sigma-Aldrich Chemical Co., St. Louis, Mo.) at a concentration of 30 mM. The compounds subsequently were diluted in sterile assay medium consisting of Opti-MEM® I (Invitrogen/Life Technologies, Carlsbad, Calif.) with 0.1% (w/v) BSA (Sigma-Aldrich) prior to use in the bio-assay. The final concentration of DMSO in the assay was 0.1%.
Plated cells are then incubated at 37° C. in a humidified 5% CO2/95% air atmosphere.
Assay: On the day of the assay, cells were washed three times with 100 μl/well of assay medium consisting of Opti-MEM® I (Invitrogen/Life Technologies) with 0.1% (w/v) BSA (Sigma-Aldrich). Medium was removed and 100 μl of assay medium was added to each well. Plates were incubated for an additional 30 minutes at 37° C. […] Reactions were terminated by the addition of 50 μl of 0.2N hydrochloric acid to each well and cAMP-accumulation was measured by radioimmunoassay (RIA) using a commercially available kit (Amersham Biosciences, Piscataway, N.J.).
All test compounds were evaluated in a dose-response paradigm ranging from 0.01 to 30 μM. Controls and test compounds were evaluated in quadruplicate in a 96-well format.
Along with the test compounds, FSH was run also as a postive control in the agonist mode using concentrations ranging from 0.1-1000 ng/ml.
Data were analyzed by one-way analysis of variance and significant differences between treatments and control determined by Least Significant Difference test.
Test compounds were compared to the effect of purified human FSH.

SMILES | melting point | pIC50 (human FSH receptor) | pIC50 (hFSH-R)
COc1ccccc1-c1ccc(C(=O)N2Cc3ccc(C(=O)NCc4cncc(Br)c4)n3Cc3ccccc32)cc1 [Example 6, N-[(5-BROMOPYRIDIN-3-YL)METHYLL]-10-[(2′-METHOXY-1,1′-BIPHENYL-4-YL)CARBONYL]-10,11-DIHYDRO-5H-PYRROLO[2,1-C][1,4]BENZODIAZEPINE-3-CARBOXAMIDE] | 180 to 184 °C | 5.05 | 5.27
CC(C)C(=O)c1ccccc1-c1ccc(C(=O)N2Cc3ccc(C(=O)NCc4cccnc4)n3Cc3ccccc32)cc1 [Example 36] | – | 5.73 | 6.37
CCNC(=O)Cc1ccccc1-c1ccc(C(=O)N2Cc3ccc(C(=O)NCc4cccnc4)n3Cc3ccccc32)cc1 [Example 66] | – | 5.44 | 6.09
CC(C)(C)c1ccc(C(=O)N2Cc3ccc(C(=O)NCc4cccnc4)n3Cc3ccccc32)cc1 [Example 80] | – | 5.30 | 5.96
CN(C)c1ccc(C(=O)N2Cc3ccc(C(=O)NCc4cccnc4)n3Cc3ccccc32)cc1 [Example 84] | – | 5.24 | 5.92
O=C(NCc1cccnc1)c1ccc2n1Cc1ccccc1N(C(=O)c1ccc(OC(F)(F)F)cc1)C2 [Example 85] | – | 5.19 | 5.96
CCCc1ccc(C(=O)N2Cc3ccc(C(=O)NCc4cccnc4)n3Cc3ccccc32)cc1 [Example 98] | – | 5.30 | 6.40
CCN(CC)c1ccc(C(=O)N2Cc3ccc(C(=O)NCc4cccnc4)n3Cc3ccccc32)cc1 [Example 102] | – | 5.24 | 6.10
Cc1cc(C(=O)N2Cc3ccc(C(=O)NCc4cccnc4)n3Cc3ccccc32)ccc1-c1cccs1 [Example 104] | – | 5.52 | 6.40
O=C(NCc1cccnc1)c1ccc2n1Cc1ccccc1N(C(=O)c1ccc(NCc3ccccc3)nc1)C2 [Example 119] | – | 4.98 | 5.17
COc1ccc(CNc2ccc(C(=O)N3Cc4ccc(C(=O)NCc5cccnc5)n4Cc4ccccc43)cn2)cc1 [Example 122] | – | 4.44 | < 4.52

These reach a higher pIC50 (human FSH receptor). Values come first.

melting point | pIC50 (human FSH receptor) | pIC50 (hFSH-R) | SMILES
– | 5.79 | 6.31 | CC(C)C(O)c1ccccc1-c1ccc(C(=O)N2Cc3ccc(C(=O)NCc4cccnc4)n3Cc3ccccc32)cc1 (stereo not shown) [Example 37]
– | 5.81 | 6.23 | O=C(NCc1cccnc1)c1ccc2n1Cc1ccccc1N(C(=O)c1ccc(-c3ccccc3O)cc1)C2 [Example 34]
– | 5.84 | 6.05 | CCOc1ccccc1-c1ccc(C(=O)N2Cc3ccc(C(=O)NCc4cccnc4)n3Cc3ccccc32)cc1 [Example 33]
– | 5.96 | 6.57 | N#Cc1ccccc1-c1ccc(C(=O)N2Cc3ccc(C(=O)NCc4cccnc4)n3Cc3ccccc32)cc1 [Example 30]
165 to 167 °C | 6.00 | 6.70 | COc1cc(C(=O)N2Cc3ccc(C(=O)NCc4cccnc4)n3Cc3ccccc32)ccc1-c1ccccc1C [Example 1]
– | 6.00 | 6.52 | Cc1cc(C(=O)N2Cc3ccc(C(=O)NCc4cccnc4)n3Cc3ccccc32)ccc1-c1ccccc1C(C)O (stereo not shown) [Example 50]
170 to 173 °C | 6.02 | 6.10 | Cc1ccccc1-c1ccc(C(=O)N2Cc3ccc(C(=O)NCc4ccc[n+]([O-])c4)n3Cc3ccccc32)cc1C [Example 4]
– | 6.03 | 6.48 | CC(C)c1ccccc1-c1ccc(C(=O)N2Cc3ccc(C(=O)NCc4cccnc4)n3Cc3ccccc32)cc1 [Example 31]
– | 6.04 | 6.49 | CN(C)C(=O)Cc1ccccc1-c1ccc(C(=O)N2Cc3ccc(C(=O)NCc4cccnc4)n3Cc3ccccc32)cc1 [Example 40]
148 to 150 °C | 6.04 | 7.10 | Cc1ccccc1-c1ccc(C(=O)N2Cc3ccc(C(=O)NCc4cccnc4)n3Cc3ccccc32)cc1C [Example 3]
– | 6.38 | 6.60 | CNC(=O)Cc1ccccc1-c1ccc(C(=O)N2Cc3ccc(C(=O)NCc4cccnc4)n3Cc3ccccc32)cc1 [Example 39]
– | 6.81 | 7.70 | COC(=O)Cc1ccccc1-c1ccc(C(=O)N2Cc3ccc(C(=O)NCc4cccnc4)n3Cc3ccccc32)cc1 [Example 32]
122 to 126 °C and 118 °C and 122 °C | 6.94 | 7.00 | CC(O)c1ccccc1-c1ccc(C(=O)N2Cc3ccc(C(=O)NCc4cccnc4)n3Cc3ccccc32)cc1 (racemic) [Example 52]
– | 7.11 | 7.05 | NC(=O)Cc1ccccc1-c1ccc(C(=O)N2Cc3ccc(C(=O)NCc4cccnc4)n3Cc3ccccc32)cc1 [Example 38]
